Results reported in patent publication US10065941B2, “Aminotriazine derivative and pharmaceutical composition comprising the same” (Shionogi & Co., Ltd., priority 2013, dated 2018).

biological target: human P2X3 receptor (Homo sapiens (Human), UniProt P56373); test: Evaluation of human P2X3 receptor inhibitory activity (Test Example 1); format: cell-based; conditions: C6BU-1 cell transfected with human P2X3 receptor gene, FLIPR 384
Method in brief: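 FLIPR calcium read-out: signal taken as peak fluorescence after ATP addition divided by starting fluorescence, and IC50 calculated from it. Compound added 5 min before 150 nM ATP solution (pre-dispense stock) to Fluo-3-AM-loaded C6BU-1 cells stably transfected with human P2X3; HEPES buffer pH 7.5 with probenecid.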

human P2X3 receptor, sequence (P56373 whole entry): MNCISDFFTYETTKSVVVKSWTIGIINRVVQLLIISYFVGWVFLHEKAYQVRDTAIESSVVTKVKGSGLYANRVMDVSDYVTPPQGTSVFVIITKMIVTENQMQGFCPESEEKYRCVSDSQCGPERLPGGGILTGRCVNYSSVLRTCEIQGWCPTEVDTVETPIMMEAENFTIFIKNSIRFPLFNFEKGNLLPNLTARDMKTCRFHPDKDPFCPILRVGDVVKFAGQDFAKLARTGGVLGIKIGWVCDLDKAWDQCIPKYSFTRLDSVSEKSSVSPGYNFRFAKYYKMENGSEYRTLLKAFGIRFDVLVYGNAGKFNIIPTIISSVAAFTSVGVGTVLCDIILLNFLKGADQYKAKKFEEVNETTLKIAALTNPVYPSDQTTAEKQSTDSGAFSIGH

Going from `CC(C)(Cn1c(=O)[nH]/c(=N\c2ccc(OC3CCC3)c(F)c2)n(Cc2ccc(Cl)cc2)c1=O)C(=O)O` [Compound R-077] to `C[C@@H](Oc1ccc(/N=c2\[nH]c(=O)n(CC(C)(C)C(=O)O)c(=O)n2Cc2ccc(Cl)cc2)cc1F)C(F)(F)F` [Compound R-095], the IC50 rises from 24 nM to 45 nM (1.9-fold).

`C[C@@H](Cn1c(=O)[nH]/c(=N\c2ccc(Oc3ncccn3)cc2)n(Cc2ccc(Cl)cc2)c1=O)C(=O)O` [Compound R-078] and `C[C@@H](Cn1c(=O)[nH]/c(=N\c2ccc(Oc3cccnn3)cc2)n(Cc2ccc(Cl)cc2)c1=O)C(=O)O` [Compound R-120] are within 1.5-fold of each other in IC50: 10 nM for the first, 8 nM for the second.

Compared with `COC(=O)[C@@H](C)Cn1c(=O)[nH]/c(=N\c2ccc(Oc3cncc(Cl)c3)cc2)n(Cc2ccc(Cl)cc2)c1=O` [Compound R-079], `C[C@@H](Cn1c(=O)[nH]/c(=N\c2ccc(Oc3cncc(Cl)c3)cc2)n(Cc2ccc(Cl)cc2)c1=O)C(=O)O` [Compound R-081] is 2.2-fold lower in IC50: 11 nM for the first, 5 nM for the second.

Going from `COC(=O)C(C)(C)Cn1c(=O)[nH]/c(=N\c2ccc(Oc3cncc(Cl)c3)cc2)n(Cc2ccc(Cl)cc2)c1=O` [Compound R-080] to `CC(C)(Cn1c(=O)[nH]/c(=N\c2ccc(Oc3cncc(Cl)c3)cc2)n(Cc2ccc(Cl)cc2)c1=O)C(=O)O` [Compound R-082], the IC50 falls from 13 nM to 7 nM (1.9-fold).

`O=c1[nH]/c(=N\c2ccc(Oc3ncccc3F)cc2)n(Cc2ccc(Cl)cc2)c(=O)n1CC1(CO)COC1` [Compound R-083] and `O=c1[nH]/c(=N\c2ccc(Oc3ccc(F)cn3)cc2)n(Cc2ccc(Cl)cc2)c(=O)n1CC1(CO)COC1` [Compound R-084] are within 1.5-fold of each other in IC50: 7 nM for the first, 6 nM for the second.

Going from `COc1ccc(Oc2ccc(/N=c3\[nH]c(=O)n(C[C@H](C)C(=O)O)c(=O)n3Cc3ccc(Cl)cc3)cc2)nn1` [Compound R-085] to `C[C@@H](Cn1c(=O)[nH]/c(=N\c2ccc(Oc3cc(Cl)ncn3)cc2)n(Cc2ccc(Cl)cc2)c1=O)C(=O)O` [Compound R-124], the IC50 rises from 6 nM to 9 nM (1.5-fold). The first is the more potent here.

`COC(=O)[C@@H](C)Cn1c(=O)[nH]/c(=N\c2ccc(Oc3ccnc(Cl)c3)cc2)n(Cc2ccc(Cl)cc2)c1=O` [Compound R-086] and `C[C@@H](Cn1c(=O)[nH]/c(=N\c2ccc(Oc3ccnc(Cl)c3)cc2)n(Cc2ccc(Cl)cc2)c1=O)C(=O)O` [Compound R-088] are within 1.5-fold of each other in IC50: 7 nM for the first, 6 nM for the second.

Compared with `COC(=O)C(C)(C)Cn1c(=O)[nH]/c(=N\c2ccc(Oc3ccnc(Cl)c3)cc2)n(Cc2ccc(Cl)cc2)c1=O` [Compound R-087], `CC(C)(Cn1c(=O)[nH]/c(=N\c2ccc(Oc3ccnc(Cl)c3)cc2)n(Cc2ccc(Cl)cc2)c1=O)C(=O)O` [Compound R-089] is 1.7-fold lower in IC50: 12 nM for the first, 7 nM for the second. The second is the more potent here.

Compared with `COC(=O)[C@@H](C)Cn1c(=O)[nH]/c(=N\c2ccc(O[C@H](C)C(F)(F)F)c(F)c2)n(Cc2ccc(Cl)cc2)c1=O` [Compound R-090], `COC(=O)[C@@H](C)Cn1c(=O)[nH]/c(=N\c2ccc(O[C@H](C)C(F)(F)F)c(C)c2)n(Cc2ccc(Cl)cc2)c1=O` [Compound R-097] is 3-fold higher in IC50: 70 nM for the first, 212 nM for the second. The first is the more potent here.

First: COC(=O)C(C)(C)Cn1c(=O)[nH]/c(=N\c2ccc(O[C@H](C)C(F)(F)F)c(F)c2)n(Cc2ccc(Cl)cc2)c1=O [Compound R-091]
Second: C[C@@H](Cn1c(=O)[nH]/c(=N\c2ccc(O[C@H](C)C(F)(F)F)c(F)c2)n(Cc2ccc(Cl)cc2)c1=O)C(=O)O [Compound R-093]
The IC50 of the first is 8.3-fold higher: 108 nM for the first, 13 nM for the second.

`CC(C)(Cn1c(=O)[nH]/c(=N\c2ccc(Oc3cc(Cl)ncn3)cc2)n(Cc2ccc(Cl)cc2)c1=O)C(=O)O` [Compound R-092] and `CC(C)(Cn1c(=O)[nH]/c(=N\c2ccc(Oc3ccnc(C#N)c3)cc2)n(Cc2ccc(Cl)cc2)c1=O)C(=O)O` [Compound R-108] are within 1.5-fold of each other in IC50: 10 nM for the first, 8 nM for the second.

Going from `C[C@@H](Cn1c(=O)[nH]/c(=N\c2ccc(O[C@H](C)C(F)(F)F)c(O[C@H](C)C(F)(F)F)c2)n(Cc2ccc(Cl)cc2)c1=O)C(=O)O` [Compound R-094] to `C[C@@H](Oc1ccc(/N=c2\[nH]c(=O)n(CC(C)(C)C(=O)O)c(=O)n2Cc2ccc(Cl)cc2)cc1O[C@H](C)C(F)(F)F)C(F)(F)F` [Compound R-096], the IC50 rises from 29 nM to 156 nM (5.4-fold). The first is the more potent here.

First: Cc1cc(/N=c2\[nH]c(=O)n(C[C@H](C)C(=O)O)c(=O)n2Cc2ccc(Cl)cc2)ccc1O[C@H](C)C(F)(F)F [Compound R-098]
Second: Cc1cc(/N=c2\[nH]c(=O)n(C[C@H](C)C(=O)O)c(=O)n2Cc2ccc(Cl)cc2)ccc1Oc1cncc(F)c1 [Compound R-116]
The IC50 of the first is 16-fold higher: 80 nM for the first, 5 nM for the second.

`COC(=O)[C@@H](C)Cn1c(=O)[nH]/c(=N\c2ccc(Oc3ccnc(C#N)c3)cc2)n(Cc2ccc(Cl)cc2)c1=O` [Compound R-099] and `C[C@@H](Cn1c(=O)[nH]/c(=N\c2ccc(Oc3ccnc(C#N)c3)cc2)n(Cc2ccc(Cl)cc2)c1=O)C(=O)O` [Compound R-123] are within 1.5-fold of each other in IC50: 4 nM for the first, 5 nM for the second.

`COC(=O)C(C)(C)Cn1c(=O)[nH]/c(=N\c2ccc(Oc3ccnc(C#N)c3)cc2)n(Cc2ccc(Cl)cc2)c1=O` [Compound R-100] and `COC(=O)C(C)(C)Cn1c(=O)[nH]/c(=N\c2ccc(Oc3ccnc(C(=O)O)c3)cc2)n(Cc2ccc(Cl)cc2)c1=O` [Compound R-105] are within 1.5-fold of each other in IC50: 6 nM for the first, 7 nM for the second.

First: COC(=O)[C@@H](C)Cn1c(=O)[nH]/c(=N\c2ccc(N3CCOCC3)c(C)c2)n(Cc2ccc(Cl)cc2)c1=O [Compound R-101]
Second: COC(=O)[C@@H](C)Cn1c(=O)[nH]/c(=N\c2ccc(N3CCOCC3)c(F)c2)n(Cc2ccc(Cl)cc2)c1=O [Compound R-106]
The IC50 of the first is 1.9-fold lower: 201 nM for the first, 379 nM for the second. The first is the more potent here.

Compared with `COC(=O)C(C)(C)Cn1c(=O)[nH]/c(=N\c2ccc(N3CCOCC3)c(C)c2)n(Cc2ccc(Cl)cc2)c1=O` [Compound R-102], `COC(=O)C(C)(C)Cn1c(=O)[nH]/c(=N\c2ccc(N3CCOCC3)c(F)c2)n(Cc2ccc(Cl)cc2)c1=O` [Compound R-107] is 2.2-fold higher in IC50: 100 nM for the first, 217 nM for the second. The first is the more potent here.

First: COC(=O)[C@@H](C)Cn1c(=O)[nH]/c(=N\c2ccc(Oc3cnccn3)c(C)c2)n(Cc2ccc(Cl)cc2)c1=O [Compound R-111]
Second: Cc1cc(/N=c2\[nH]c(=O)n(C[C@H](C)C(=O)O)c(=O)n2Cc2ccc(Cl)cc2)ccc1Oc1cnccn1 [Compound R-130]
The IC50 of the first is 1.8-fold lower: 5 nM for the first, 9 nM for the second.

First: COC(=O)[C@@H](C)Cn1c(=O)[nH]/c(=N\c2ccc(Oc3noc(C)n3)cc2)n(Cc2ccc(Cl)cc2)c1=O [Compound R-112]
Second: Cc1nc(Oc2ccc(/N=c3\[nH]c(=O)n(C[C@H](C)C(=O)O)c(=O)n3Cc3ccc(Cl)cc3)cc2)no1 [Compound R-114]
The IC50 of the first is 2.3-fold lower: 17 nM for the first, 39 nM for the second.

Compared with `COC(=O)C(C)(C)Cn1c(=O)[nH]/c(=N\c2ccc(Oc3noc(C)n3)cc2)n(Cc2ccc(Cl)cc2)c1=O` [Compound R-113], `Cc1nc(Oc2ccc(/N=c3\[nH]c(=O)n(CC(C)(C)C(=O)O)c(=O)n3Cc3ccc(Cl)cc3)cc2)no1` [Compound R-115] is 5-fold higher in IC50: 13 nM for the first, 65 nM for the second.

`C[C@@H](Cn1c(=O)[nH]/c(=N\c2ccc(Oc3cncc(F)c3)c(F)c2)n(Cc2ccc(Cl)cc2)c1=O)C(=O)O` [Compound R-117] and `CC(C)(Cn1c(=O)[nH]/c(=N\c2ccc(Oc3cncc(F)c3)c(F)c2)n(Cc2ccc(Cl)cc2)c1=O)C(=O)O` [Compound R-121] are within 1.5-fold of each other in IC50: 6 nM for the first, 5 nM for the second.

Going from `Cc1cc(/N=c2\[nH]c(=O)n(CC(C)(C)C(=O)O)c(=O)n2Cc2ccc(Cl)cc2)ccc1Oc1cncc(F)c1` [Compound R-118] to `Cc1cc(/N=c2\[nH]c(=O)n(CC(C)(C)C(=O)O)c(=O)n2Cc2ccc(Cl)cc2)ccc1Oc1cnccn1` [Compound R-131], the IC50 rises from 5 nM to 9 nM (1.8-fold). The first is the more potent here.

`COC(=O)[C@@H](C)Cn1c(=O)[nH]/c(=N\c2ccc(Oc3cccnn3)cc2)n(Cc2ccc(Cl)cc2)c1=O` [Compound R-119] and `COC(=O)[C@@H](C)Cn1c(=O)[nH]/c(=N\c2ccc(Oc3ncns3)cc2)n(Cc2ccc(Cl)cc2)c1=O` [Compound R-134] are the same in IC50: 5 nM for the first, 5 nM for the second.

Going from `COC(=O)[C@H](C)[C@H](C)n1c(=O)[nH]/c(=N\c2ccc(Oc3cnccn3)c(F)c2)n(Cc2ccc(Cl)cc2)c1=O` [Compound R-122] to `C[C@@H](C(=O)O)[C@H](C)n1c(=O)[nH]/c(=N\c2ccc(Oc3cnccn3)c(F)c2)n(Cc2ccc(Cl)cc2)c1=O` [Compound R-125], the IC50 falls from 13 nM to 7 nM (1.9-fold). The second is the more potent here.

First: CC(C)(Cn1c(=O)[nH]/c(=N\c2ccc(Oc3cc(O)nc(F)c3)cc2)n(Cc2ccc(Cl)cc2)c1=O)C(=O)O [Compound R-126]
Second: COC(=O)C(C)(C)Cn1c(=O)[nH]/c(=N\c2ccc(Oc3nc(C)ns3)cc2)n(Cc2ccc(Cl)cc2)c1=O [Compound R-137]
The IC50 of the first is 1.7-fold higher: 10 nM for the first, 6 nM for the second.

Compared with `CCc1[nH]c2ccc(/N=c3\[nH]c(=O)n([C@@H](C)[C@@H](C)C(=O)OC)c(=O)n3Cc3ccc(Cl)cc3)cc2c1C` [Compound R-127], `CCc1[nH]c2ccc(/N=c3\[nH]c(=O)n([C@@H](C)[C@@H](C)C(=O)O)c(=O)n3Cc3ccc(Cl)cc3)cc2c1C` [Compound R-128] is 8.2-fold lower in IC50: 90 nM for the first, 11 nM for the second.

`COC(=O)C(C)(C)Cn1c(=O)[nH]/c(=N\c2ccc(Oc3cnccn3)c(C)c2)n(Cc2ccc(Cl)cc2)c1=O` [Compound R-129] and `COC(=O)C(C)(C)Cn1c(=O)[nH]/c(=N\c2ccc(Oc3ncns3)cc2)n(Cc2ccc(Cl)cc2)c1=O` [Compound R-136] are within 1.5-fold of each other in IC50: 7 nM for the first, 6 nM for the second.

First: COC(=O)[C@@H](C)Cn1c(=O)[nH]/c(=N\c2ccc(Oc3ncc(C)s3)cc2)n(Cc2ccc(Cl)cc2)c1=O [Compound R-132]
Second: Cc1cnc(Oc2ccc(/N=c3\[nH]c(=O)n(C[C@H](C)C(=O)O)c(=O)n3Cc3ccc(Cl)cc3)cc2)s1 [Compound R-133]
The IC50 of the first is 1.7-fold higher: 10 nM for the first, 6 nM for the second. The second is the more potent here.

Going from `COC(=O)[C@@H](C)Cn1c(=O)[nH]/c(=N\c2ccc(Oc3nc(C)ns3)cc2)n(Cc2ccc(Cl)cc2)c1=O` [Compound R-135] to `COC(=O)[C@@H](C)Cn1c(=O)[nH]/c(=N\c2ccc(N3CCCCC3)c(C)c2)n(Cc2ccc(Cl)cc2)c1=O` [Compound R-138], the IC50 rises from 5 nM to 78 nM (16-fold).

First: COC(=O)C(C)(C)Cn1c(=O)[nH]/c(=N\c2ccc(N3CCCCC3)c(C)c2)n(Cc2ccc(Cl)cc2)c1=O [Compound R-139]
Second: COC(=O)[C@@H](C)Cn1c(=O)[nH]/c(=N\c2ccc(N3CCCCC3)c(F)c2)n(Cc2ccc(Cl)cc2)c1=O [Compound R-140]
The IC50 of the first is 3.2-fold higher: 119 nM for the first, 37 nM for the second.
